Test results from the supplement of paper PMC10307832.

What was measured:
Assay in all cases: relative viability (nuclei count vs DMSO), 5 days (fraction); higher = more cells survive
[1] = compound: O[C@H]1CC[C@H](Nc2ncc3nc(Nc4c(F)cc(F)cc4F)n([C@H]4CCOC4)c3n2)CC1 [Tanzisertib] + CS(=O)(=O)N1CCN(Cc2cc3nc(-c4cccc5[nH]ncc45)nc(N4CCOCC4)c3s2)CC1 [Pictilisib] (partner 1 µM)
Summary of the method: (§1)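 Relative viability equals treated-well nuclei counts divided by vehicle-well nuclei counts. Counts came from 4× images of lung cancer cell lines grown in 1536-well plates for 5 days after pin-tool dosing on the day after seeding. Dosing used one drug alone or a fixed anchor-drug dose plus five library-drug doses (not always all listed) in √10 steps, and values are medians of duplicate plates.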

[2] = compound: O[C@H]1CC[C@H](Nc2ncc3nc(Nc4c(F)cc(F)cc4F)n([C@H]4CCOC4)c3n2)CC1 [Tanzisertib] + CC(C)C[C@H](NC(=O)[C@H](Cc1ccccc1)NC(=O)c1cnccn1)B(O)O [Bortezomib] (partner 0.002 µM)
Summary of the method: as §1

[3] = compound: C1CNCCC1C2=CC(=NN2)C3=CC=NC=C3 + Cc1cc(Nc2cc(N3CCN(C)CC3)nc(Sc3ccc(NC(=O)C4CC4)cc3)n2)n[nH]1 [Tozasertib] (partner 0.1 µM)
Summary of the method: as §1

[4] = compound: O[C@H]1CC[C@H](Nc2ncc3nc(Nc4c(F)cc(F)cc4F)n([C@H]4CCOC4)c3n2)CC1 [Tanzisertib] + O=C(c1cc(Cc2n[nH]c(=O)c3ccccc23)ccc1F)N1CCN(C(=O)C2CC2)CC1 [Olaparib] (partner 8 µM)
Summary of the method: as §1

Cell Line	relative viability ([1]; first compound 0.08 µM)	relative viability ([1]; first compound 0.253 µM)	relative viability ([1]; first compound 0.8 µM)	relative viability ([1]; first compound 2.53 µM)	relative viability ([1]; first compound 8 µM)	relative viability ([2]; first compound 0.08 µM)	relative viability ([2]; first compound 0.253 µM)	relative viability ([2]; first compound 0.8 µM)	relative viability ([2]; first compound 2.53 µM)	relative viability ([2]; first compound 8 µM)	relative viability ([3]; first compound 0.08 µM)	relative viability ([3]; first compound 0.8 µM)	relative viability ([3]; first compound 2.53 µM)	relative viability ([3]; first compound 8 µM)	relative viability ([4]; first compound 0.08 µM)	relative viability ([4]; first compound 0.253 µM)	relative viability ([4]; first compound 0.8 µM)	relative viability ([4]; first compound 2.53 µM)	relative viability ([4]; first compound 8 µM)
NCI-H727	0.356	0.463	0.363	0.333	0.307	1	0.762	1.04	0.806	0.64	0.613	0.51	0.87	0.545	0.69	0.678	0.553	0.734	0.686
HARA	0.475	0.337	0.321	0.436	0.412	1.22	1.16	1.18	1.17	1.18	0.12	0.0979	0.11	0.0912	0.876	0.844	0.715	1.28	0.849
NCI-H2228	0.499	0.444	0.32	0.291	0.367	1.11	0.948	1.08	0.801	0.721	0.28	0.191	0.274	0.309	0.579	0.506	0.556	0.788	0.496
LCLC-97TM1	–	0.16	0.176	0.159	0.164	1.13	1.24	0.784	0.957	0.518	0.225	0.177	0.256	0.293	0.487	0.51	0.416	0.301	0.47
LC-2-ad	0.506	0.426	0.458	0.0954	0.359	1.05	1.08	1.05	1.09	1.01	–	0.445	0.485	0.467	0.68	0.743	0.706	0.714	0.794
SK-LU-1	0.58	0.539	0.565	0.633	0.527	1.07	1.19	1.3	1.18	0.493	0.321	0.367	0.391	0.334	0.502	0.538	0.453	0.491	0.373
EKVX	0.425	0.392	0.405	0.42	0.329	1.1	0.996	1.02	0.965	0.683	0.396	0.303	0.491	0.401	0.888	0.876	0.862	0.872	0.792
HCC-827	0.876	0.937	1.14	0.885	0.536	0.952	1.06	1.12	1.04	0.701	0.389	0.435	0.453	0.432	0.616	0.716	0.711	0.54	0.355
NCI-H650	0.843	0.825	0.858	0.957	0.963	0.868	1	0.87	0.945	0.366	0.738	0.729	0.799	0.793	0.373	0.391	0.359	0.426	0.391
CAL-12T	0.416	0.468	0.438	0.485	0.353	1.04	1.2	1.18	1.01	0.825	0.334	0.34	0.313	0.342	0.731	0.767	0.567	0.641	0.844
NCI-H2342	–	–	–	–	–	–	–	–	–	–	0.437	0.491	0.537	0.518	0.572	0.423	0.483	0.485	0.439
SW 900	–	–	–	–	–	–	–	–	–	–	0.648	0.623	0.514	0.681	–	0.82	0.963	0.782	0.722
IA-LM	0.375	0.335	0.339	0.255	0.362	0.925	0.803	0.777	0.867	0.977	–	–	–	–	0.738	0.765	0.754	0.859	0.789
EPLC-272H	0.396	0.328	0.397	0.337	0.199	1.04	0.949	0.876	0.943	1.04	0.357	0.221	0.367	0.314	0.991	0.767	0.758	1.51	0.572
A-427	0.822	0.728	0.704	0.683	0.606	1.09	0.938	1.01	0.96	0.927	0.203	0.214	0.19	0.22	0.783	0.66	0.811	0.877	0.782
NCI-H647	0.456	0.537	0.474	0.436	0.141	1.03	1.01	1	1.14	1.02	0.263	0.413	0.297	0.263	0.875	0.487	0.505	0.657	0.65
NCI-H1975	0.297	0.266	0.304	0.295	0.309	0.428	0.467	0.371	0.401	0.347	0.885	0.759	0.725	0.724	0.898	0.836	0.807	0.818	0.752
NCI-H358	0.393	0.389	0.331	0.293	0.332	–	–	–	–	–	0.106	0.101	0.106	0.0938	0.623	0.547	0.586	0.583	0.492

Cell Line	relative viability ([1]; first compound 0.08 µM)	relative viability ([1]; first compound 0.253 µM)	relative viability ([1]; first compound 0.8 µM)	relative viability ([1]; first compound 2.53 µM)	relative viability ([1]; first compound 8 µM)	relative viability ([2]; first compound 0.08 µM)	relative viability ([2]; first compound 0.253 µM)	relative viability ([2]; first compound 0.8 µM)	relative viability ([2]; first compound 2.53 µM)	relative viability ([2]; first compound 8 µM)	relative viability ([3]; first compound 0.08 µM)	relative viability ([3]; first compound 0.8 µM)	relative viability ([3]; first compound 2.53 µM)	relative viability ([3]; first compound 8 µM)	relative viability ([4]; first compound 0.08 µM)	relative viability ([4]; first compound 0.253 µM)	relative viability ([4]; first compound 0.8 µM)	relative viability ([4]; first compound 2.53 µM)	relative viability ([4]; first compound 8 µM)
PC-3 [JPC-3]	0.741	0.823	0.688	0.673	0.577	0.875	0.931	0.847	0.739	0.716	0.832	0.914	0.889	0.853	1.18	1.21	1.19	1.18	1.04
NCI-H1792	0.307	0.261	0.29	0.231	0.243	0.98	1.08	0.937	0.882	0.982	–	–	–	–	0.813	0.572	0.498	0.345	0.436
NCI-H1944	0.364	0.344	0.351	0.331	0.336	–	–	–	–	–	0.243	0.264	0.263	0.256	0.462	0.412	0.377	0.44	0.385
EBC-1	0.468	0.454	0.405	0.338	0.275	0.638	0.609	0.503	0.632	0.374	–	–	–	–	0.747	0.675	0.675	0.603	0.536
SK-MES-1	0.378	0.338	0.366	0.34	0.245	–	–	–	–	–	0.783	1	0.981	0.834	0.699	0.709	0.742	0.653	0.624
NCI-H1563	0.661	0.638	0.572	0.601	0.607	0.957	0.859	0.917	0.829	0.945	–	–	–	–	–	–	–	–	–
NCI-H1648	–	–	–	–	–	–	–	–	–	–	0.425	0.475	0.461	0.508	0.662	1.22	0.797	0.817	0.765
NCI-H1299	0.762	0.713	0.699	0.893	0.729	1.03	1.02	1.07	1.08	1.13	–	–	–	–	0.997	0.972	0.96	1.1	1.03
A549	0.564	0.496	0.588	0.534	0.428	–	–	–	–	–	–	–	–	–	0.297	0.397	0.344	0.35	0.0802
NCI-H1793	0.378	0.234	0.377	0.251	0.317	–	–	–	–	–	0.313	0.243	0.332	0.373	0.876	0.807	0.873	0.77	0.592
NCI-H1623	–	–	–	–	–	–	–	–	–	–	0.434	0.446	0.439	0.454	–	–	–	–	–
NCI-H1703	0.272	0.245	0.258	0.224	0.218	0.328	0.326	0.293	0.377	0.248	–	–	–	–	0.457	0.453	0.388	0.35	0.392
NCI-H2170	0.357	0.307	0.313	0.307	0.27	–	–	–	–	–	0.667	0.621	0.775	0.681	0.669	0.569	0.601	0.604	0.53
NCI-H1395	0.592	0.735	0.568	0.589	0.533	–	–	–	–	–	0.731	0.643	0.813	0.766	0.462	0.445	0.455	0.42	0.45
NCI-H522	–	–	–	–	–	–	–	–	–	–	0.519	0.518	0.587	0.562	0.629	0.809	0.726	0.647	0.634
Calu-6	0.901	1.01	0.865	1.03	0.976	1.02	0.993	1.03	1.06	1.05	–	–	–	–	0.583	0.566	0.563	0.597	0.509
LK-2	0.515	0.578	0.477	0.463	0.435	–	–	–	–	–	0.157	0.208	0.182	0.184	0.772	0.835	0.712	0.669	0.769
